Laboratory results: EP4745135A1 (Gluetacs Therapeutics (Shanghai) Co., Ltd., priority 2023, dated 2025)

Tests used:
GSPT1 = assay: Western blot, degradation of substrate protein in hPBMCs; assay type: cell-based, Human
IKZF1 = target: T1, IKZF1 (Homo sapiens, UniProt Q13422+Q96SW2); assay: as above; assay type: cell-based
T1 construct: effects of the compounds of the present disclosure on the expression of target proteins in cells; endogenous in cells; host or cells: human PBMCs (Milecell Biotechnologies)

IKZF3 = target: T2, IKZF3 (Homo sapiens, UniProt Q96SW2+Q9UKT9); assay: as above; assay type: cell-based
T2 construct: effects of the compounds of the present disclosure on the expression of target proteins in cells; endogenous in cells; host or cells: human PBMCs (Milecell Biotechnologies)

WEE1 = target: T3, WEE1 (Homo sapiens, UniProt P30291+Q96SW2); assay: as above; assay type: cell-based
T3 construct: effects of the compounds of the present disclosure on the expression of target proteins in cells; endogenous in cells; host or cells: human PBMCs (Milecell Biotechnologies)

IKZF2 = target: T4, IKZF2 (Homo sapiens, UniProt Q96SW2+Q9UKS7); assay: as above; assay type: cell-based
T4 construct: effects of the compounds of the present disclosure on the expression of target proteins in cells; endogenous in cells; host or cells: human PBMCs (Milecell Biotechnologies)

CK1α = target: T5, CK1α (Homo sapiens, UniProt P48729+Q96SW2); assay: as above; assay type: cell-based
T5 construct: effects of the compounds of the present disclosure on the expression of target proteins in cells; endogenous in cells; host or cells: human PBMCs (Milecell Biotechnologies)

[1] = target: T6, human Cereblon WT GST-tagged protein (Homo sapiens, UniProt Q96SW2); assay: CRBN-binding affinity, HTRF (CEREBLON BINDING kit); details: for inhibition at 0.5 µM: read-out: Inhibition Rate at 0.5 µM (%); for inhibition at 2 µM: read-out: Inhibition Rate at 2 µM (%)
T6 construct: purchased CISBIO 64BDCRBNPEH

[2] = 24 hours treatment, compounds at 50 nM and 500 nM (concentration behind the class not stated)
[3] = Western blot, 24 hours of compound treatment, compounds tested at 50 nM and 500 nM (concentration for the table not stated)

T6 sequence (Q96SW2 whole entry): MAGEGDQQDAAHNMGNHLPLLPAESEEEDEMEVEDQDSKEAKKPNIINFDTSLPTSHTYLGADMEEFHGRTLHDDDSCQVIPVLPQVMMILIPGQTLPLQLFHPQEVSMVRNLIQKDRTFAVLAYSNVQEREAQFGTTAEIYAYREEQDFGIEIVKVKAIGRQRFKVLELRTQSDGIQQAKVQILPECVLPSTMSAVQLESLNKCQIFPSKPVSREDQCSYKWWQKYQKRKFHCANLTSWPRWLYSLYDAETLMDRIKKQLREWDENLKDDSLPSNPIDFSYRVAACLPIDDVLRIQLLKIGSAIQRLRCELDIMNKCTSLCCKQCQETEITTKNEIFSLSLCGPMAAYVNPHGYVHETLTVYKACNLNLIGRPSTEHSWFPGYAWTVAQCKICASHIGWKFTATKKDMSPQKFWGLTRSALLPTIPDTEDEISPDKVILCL
T2 sequence (Q9UKT9 whole entry): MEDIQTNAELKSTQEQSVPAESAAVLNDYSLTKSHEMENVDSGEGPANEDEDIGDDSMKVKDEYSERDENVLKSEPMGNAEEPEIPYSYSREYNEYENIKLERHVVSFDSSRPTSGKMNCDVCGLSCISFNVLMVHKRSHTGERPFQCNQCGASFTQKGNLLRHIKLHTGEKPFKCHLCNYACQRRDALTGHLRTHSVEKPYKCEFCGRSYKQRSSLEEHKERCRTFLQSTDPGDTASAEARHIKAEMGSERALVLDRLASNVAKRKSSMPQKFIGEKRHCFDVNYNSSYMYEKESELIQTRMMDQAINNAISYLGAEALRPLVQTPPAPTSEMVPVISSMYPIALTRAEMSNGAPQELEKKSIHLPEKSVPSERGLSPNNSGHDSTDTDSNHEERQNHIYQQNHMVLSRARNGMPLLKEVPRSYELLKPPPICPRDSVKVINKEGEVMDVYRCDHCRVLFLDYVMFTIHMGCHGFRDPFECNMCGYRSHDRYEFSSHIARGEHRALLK
T2 sequence (Q96SW2 whole entry): as the sequence (Q96SW2 whole entry) above
T2 sequence (Q16531 whole entry partner): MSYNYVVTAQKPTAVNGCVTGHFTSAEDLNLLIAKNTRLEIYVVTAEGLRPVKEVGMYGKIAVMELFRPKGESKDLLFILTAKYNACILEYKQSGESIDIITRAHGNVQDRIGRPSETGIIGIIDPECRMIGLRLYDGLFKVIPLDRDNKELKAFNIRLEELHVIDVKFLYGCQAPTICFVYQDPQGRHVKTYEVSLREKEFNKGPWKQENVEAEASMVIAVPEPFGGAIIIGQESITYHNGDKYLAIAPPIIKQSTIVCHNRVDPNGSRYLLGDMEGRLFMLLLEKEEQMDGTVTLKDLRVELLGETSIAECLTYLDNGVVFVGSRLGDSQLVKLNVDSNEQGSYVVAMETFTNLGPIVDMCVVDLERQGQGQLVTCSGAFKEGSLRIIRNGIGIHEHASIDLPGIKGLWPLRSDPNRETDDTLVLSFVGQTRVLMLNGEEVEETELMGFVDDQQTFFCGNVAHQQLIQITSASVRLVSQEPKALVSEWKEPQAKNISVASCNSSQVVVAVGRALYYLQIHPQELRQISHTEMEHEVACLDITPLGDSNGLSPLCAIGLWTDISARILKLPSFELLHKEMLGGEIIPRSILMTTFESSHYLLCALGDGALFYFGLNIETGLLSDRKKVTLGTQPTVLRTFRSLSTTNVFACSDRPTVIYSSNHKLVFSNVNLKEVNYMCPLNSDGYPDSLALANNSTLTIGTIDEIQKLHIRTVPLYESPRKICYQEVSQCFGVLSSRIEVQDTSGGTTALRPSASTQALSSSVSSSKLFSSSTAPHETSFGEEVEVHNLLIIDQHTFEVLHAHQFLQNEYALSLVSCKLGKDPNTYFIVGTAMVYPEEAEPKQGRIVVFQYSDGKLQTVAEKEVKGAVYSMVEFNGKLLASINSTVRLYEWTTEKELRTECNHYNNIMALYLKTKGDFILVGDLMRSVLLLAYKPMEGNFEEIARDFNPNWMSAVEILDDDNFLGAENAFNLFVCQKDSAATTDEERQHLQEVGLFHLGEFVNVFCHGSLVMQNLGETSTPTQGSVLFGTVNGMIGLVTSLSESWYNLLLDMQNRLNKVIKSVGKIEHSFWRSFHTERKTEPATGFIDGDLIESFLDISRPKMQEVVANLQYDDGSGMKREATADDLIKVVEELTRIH
T5 sequence (P48729 whole entry): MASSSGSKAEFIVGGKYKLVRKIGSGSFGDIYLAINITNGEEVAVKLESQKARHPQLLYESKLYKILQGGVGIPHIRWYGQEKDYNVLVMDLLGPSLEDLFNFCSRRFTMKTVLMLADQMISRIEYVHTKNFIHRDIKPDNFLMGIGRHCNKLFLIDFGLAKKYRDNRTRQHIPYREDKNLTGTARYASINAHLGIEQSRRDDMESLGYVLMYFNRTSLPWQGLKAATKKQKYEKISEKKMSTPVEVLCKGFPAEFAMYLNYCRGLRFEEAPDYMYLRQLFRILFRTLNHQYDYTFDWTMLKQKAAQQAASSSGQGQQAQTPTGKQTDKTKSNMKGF
T5 sequence (Q96SW2 whole entry): as the sequence (Q96SW2 whole entry) above
T5 sequence (Q16531 whole entry partner): as the sequence (Q16531 whole entry partner) above
T4 sequence (Q9UKS7 whole entry): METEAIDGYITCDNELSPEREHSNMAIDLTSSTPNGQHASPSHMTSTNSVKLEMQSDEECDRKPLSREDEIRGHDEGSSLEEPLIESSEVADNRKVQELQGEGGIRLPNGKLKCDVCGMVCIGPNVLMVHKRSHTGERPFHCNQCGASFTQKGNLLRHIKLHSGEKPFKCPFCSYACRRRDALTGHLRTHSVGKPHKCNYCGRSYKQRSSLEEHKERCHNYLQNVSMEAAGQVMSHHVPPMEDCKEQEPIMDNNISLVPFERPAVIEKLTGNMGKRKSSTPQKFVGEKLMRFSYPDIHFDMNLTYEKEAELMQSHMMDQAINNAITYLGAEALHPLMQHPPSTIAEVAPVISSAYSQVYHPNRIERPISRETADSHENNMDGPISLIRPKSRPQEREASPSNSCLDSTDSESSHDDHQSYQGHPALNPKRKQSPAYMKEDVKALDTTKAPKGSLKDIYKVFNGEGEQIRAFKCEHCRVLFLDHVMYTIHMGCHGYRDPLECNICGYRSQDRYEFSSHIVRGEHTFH
T4 sequence (Q96SW2 whole entry): as the sequence (Q96SW2 whole entry) above
T4 sequence (Q16531 whole entry partner): as the sequence (Q16531 whole entry partner) above
T1 sequence (Q13422 whole entry): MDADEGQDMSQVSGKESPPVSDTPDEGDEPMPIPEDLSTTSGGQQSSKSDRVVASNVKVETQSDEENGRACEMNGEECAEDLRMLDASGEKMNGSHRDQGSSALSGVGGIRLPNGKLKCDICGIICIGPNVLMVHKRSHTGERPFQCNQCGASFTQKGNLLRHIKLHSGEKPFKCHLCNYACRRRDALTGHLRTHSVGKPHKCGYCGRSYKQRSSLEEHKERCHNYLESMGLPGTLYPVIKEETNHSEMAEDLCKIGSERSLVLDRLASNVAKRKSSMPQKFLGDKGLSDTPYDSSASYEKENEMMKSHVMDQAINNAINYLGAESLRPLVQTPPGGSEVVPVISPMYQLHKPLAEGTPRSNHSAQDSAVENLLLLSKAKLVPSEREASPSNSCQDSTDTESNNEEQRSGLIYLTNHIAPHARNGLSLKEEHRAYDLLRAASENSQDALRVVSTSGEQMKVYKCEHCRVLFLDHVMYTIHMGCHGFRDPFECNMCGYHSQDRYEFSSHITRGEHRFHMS
T1 sequence (Q96SW2 whole entry): as the sequence (Q96SW2 whole entry) above
T1 sequence (Q16531 whole entry partner): as the sequence (Q16531 whole entry partner) above
T3 sequence (P30291 whole entry): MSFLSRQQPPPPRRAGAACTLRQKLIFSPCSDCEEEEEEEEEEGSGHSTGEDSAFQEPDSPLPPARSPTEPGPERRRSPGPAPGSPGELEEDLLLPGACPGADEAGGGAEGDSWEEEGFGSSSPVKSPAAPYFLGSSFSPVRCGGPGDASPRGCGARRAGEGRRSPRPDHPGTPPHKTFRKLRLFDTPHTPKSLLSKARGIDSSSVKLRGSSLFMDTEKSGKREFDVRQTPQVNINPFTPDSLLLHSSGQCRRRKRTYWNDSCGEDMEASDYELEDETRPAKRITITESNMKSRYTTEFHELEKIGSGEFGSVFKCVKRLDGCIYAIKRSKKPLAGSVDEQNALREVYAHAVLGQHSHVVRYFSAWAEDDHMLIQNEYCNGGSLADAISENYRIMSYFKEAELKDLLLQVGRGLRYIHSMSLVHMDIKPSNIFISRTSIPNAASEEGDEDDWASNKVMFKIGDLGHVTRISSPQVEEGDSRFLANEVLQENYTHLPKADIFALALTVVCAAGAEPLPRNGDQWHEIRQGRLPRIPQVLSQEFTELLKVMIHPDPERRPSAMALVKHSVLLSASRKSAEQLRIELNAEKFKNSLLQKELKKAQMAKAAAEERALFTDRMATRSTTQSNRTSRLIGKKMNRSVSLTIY
T3 sequence (Q96SW2 whole entry): as the sequence (Q96SW2 whole entry) above
T3 sequence (Q16531 whole entry partner): as the sequence (Q16531 whole entry partner) above

SMILES	GSPT1 substrate protein remaining % (GSPT1; [2])	IKZF 1 substrate protein remaining % (IKZF1; [2])	IKZF3 substrate protein remaining % (IKZF3; [2])	Wee1 substrate protein remaining % (WEE1; [2])	IKZF2 substrate protein remaining % (IKZF2; [2])	CK1α substrate protein remaining % (CK1α; [2])	inhibition at 0.5 µM [1]	inhibition at 2 µM [1]	GSPT1 substrate protein remaining % (GSPT1; [3])	IKZF 1 substrate protein remaining % (IKZF1; [3])	IKZF3 substrate protein remaining % (IKZF3; [3])	Wee1 substrate protein remaining % (WEE1; [3])	IKZF2 substrate protein remaining % (IKZF2; [3])	CK1α substrate protein remaining % (CK1α; [3])
O=C1CCC(N2Cc3cc(CN4CCN(CC5=C(c6ccc(F)cc6)CCCC5)CC4)ccc3C2=S)C(=O)N1 (stereo not drawn) [GT-08164, 3-(5-((4-((4'-fluoro-3,4,5,6-tetrahydro-[1,1'-biphenyl]-2-yl)methyl)piperazin-1-yl)methyl)-1-thioxoisoindolin-2-yl)piperidine-2,6-dione]	A (0% ≤ substrate protein remaining % ≤ 80%)	A (0% ≤ substrate protein remaining % ≤ 80%)	A (0% ≤ substrate protein remaining % ≤ 80%)	A (0% ≤ substrate protein remaining % ≤ 80%)	A (0% ≤ substrate protein remaining % ≤ 80%)	B (80%< substrate protein remaining %≤ 100%)	40 to 53%	80 to 100%						
O=C1CCC(N2Cc3c(CN4CC5CCC(C4)N5c4cccc(Cl)c4Cl)cccc3C2=S)C(=O)N1 (stereo not drawn) [GT-08470, 3-(4-((8-(2,3-dichlorophenyl)-3,8-diazabicyclo[3.2.1]octan-3-yl)methyl)-1-thioxoisoindolin-2-yl)piperidine-2,6-dione]							20 to 30%	53 to 60%	A (0% ≤ substrate protein remaining % ≤ 80%)	B (80%< substrate protein remaining %≤ 100%)	B (80%< substrate protein remaining %≤ 100%)	B (80%< substrate protein remaining %≤ 100%)	B (80%< substrate protein remaining %≤ 100%)	B (80%< substrate protein remaining %≤ 100%)
CC1(C)CCC(CN2C3CC2CN(Cc2cccc4c2CN(C2CCC(=O)NC2=O)C4=S)C3)=C(c2ccc(Cl)cc2)C1 (stereo not drawn) [GT-08271, 3-(4-((6-((4'-chloro-5,5-dimethyl-3,4,5,6-tetrahydro-[1,1'-biphenyl]-2-yl)methyl)-3,6-diazabicyclo[3.1.1]heptan-3-yl)methyl)-1-thioxoisoindolin-2-yl)piperidine-2,6-dione]							30 to 40%	60 to 80%	A (0% ≤ substrate protein remaining % ≤ 80%)	B (80%< substrate protein remaining %≤ 100%)	B (80%< substrate protein remaining %≤ 100%)	A (0% ≤ substrate protein remaining % ≤ 80%)	B (80%< substrate protein remaining %≤ 100%)	A (0% ≤ substrate protein remaining % ≤ 80%)
O=C1CCC(N2Cc3c(CN4CCC(c5ccccc5C(F)(F)F)CC4)cccc3C2=S)C(=O)N1 (stereo not drawn) [GT-08598, 3-(1-thioxo-4-((4-(2-(trifluoromethyl)phenyl)piperidin-1-yl)methyl)isoindolin-2-yl)piperidine-2,6-dione]							40 to 53%	60 to 80%	A (0% ≤ substrate protein remaining % ≤ 80%)	B (80%< substrate protein remaining %≤ 100%)	B (80%< substrate protein remaining %≤ 100%)	A (0% ≤ substrate protein remaining % ≤ 80%)	B (80%< substrate protein remaining %≤ 100%)	B (80%< substrate protein remaining %≤ 100%)
O=C1CCC(N2Cc3cc(CN4CCN(c5ccsc5)CC4)ccc3C2=S)C(=O)N1 (stereo not drawn) [GT-08169, 3-(5-((4-(thiophen-3-yl)piperazin-1-yl)methyl)-1-thioxoisoindolin-2-yl)piperidine-2,6-dione]	A (0% ≤ substrate protein remaining % ≤ 80%)	B (80%< substrate protein remaining %≤ 100%)	B (80%< substrate protein remaining %≤ 100%)	A (0% ≤ substrate protein remaining % ≤ 80%)	B (80%< substrate protein remaining %≤ 100%)	B (80%< substrate protein remaining %≤ 100%)	80 to 100%	80 to 100%						
O=C1CCC(N2Cc3c(CN4CCc5sccc5C4)cccc3C2=S)C(=O)N1 (stereo not drawn) [GT-08333, 3-(4-((6,7-dihydrothieno[3,2-c]pyridin-5(4H)-yl)methyl)-1-thioxoisoindolin-2-yl)piperidine-2,6-dione]	A (0% ≤ substrate protein remaining % ≤ 80%)	B (80%< substrate protein remaining %≤ 100%)	B (80%< substrate protein remaining %≤ 100%)	A (0% ≤ substrate protein remaining % ≤ 80%)	B (80%< substrate protein remaining %≤ 100%)	A (0% ≤ substrate protein remaining % ≤ 80%)	60 to 80%	80 to 100%						
O=C1CCC(N2Cc3c(CN4CCN(c5ccncc5)CC4)cccc3C2=S)C(=O)N1 (stereo not drawn) [GT-08726, 3-(4-((4-(pyridin-4-yl)piperazin-1-yl)methyl)-1-thioxoisoindolin-2-yl)piperidine-2,6-dione]							60 to 80%	80 to 100%	A (0% ≤ substrate protein remaining % ≤ 80%)	B (80%< substrate protein remaining %≤ 100%)	A (0% ≤ substrate protein remaining % ≤ 80%)	A (0% ≤ substrate protein remaining % ≤ 80%)	A (0% ≤ substrate protein remaining % ≤ 80%)	B (80%< substrate protein remaining %≤ 100%)
O=C1CCC(N2Cc3c(CN4CCN(c5ncnc6sc(-c7ccccc7)cc56)CC4)cccc3C2=S)C(=O)N1 (stereo not drawn) [GT-08919, 3-(4-((4-(6-phenylthieno[2,3-d]pyrimidin-4-yl)piperazin-1-yl)methyl)-1-thioxoisoindolin-2-yl)piperidine-2,6-dione]	B (80%< substrate protein remaining %≤ 100%)	B (80%< substrate protein remaining %≤ 100%)	B (80%< substrate protein remaining %≤ 100%)	A (0% ≤ substrate protein remaining % ≤ 80%)	B (80%< substrate protein remaining %≤ 100%)	B (80%< substrate protein remaining %≤ 100%)	20 to 30%	60 to 80%						
O=C1CCC(N2Cc3c(CN4CC=C(c5ncnc6sc7c(c56)CCC7)CC4)cccc3C2=S)C(=O)N1 (stereo not drawn) [GT-08963, 3-(4-((4-(6,7-dihydro-5H-cyclopenta[4,5]thieno[2,3-d]pyrimidin-4-yl)-3,6-dihydropyridin-1(2H)-yl)methyl)-1-thioxoisoindolin-2-yl)piperidine-2,6-dione]	B (80%< substrate protein remaining %≤ 100%)	B (80%< substrate protein remaining %≤ 100%)	B (80%< substrate protein remaining %≤ 100%)	A (0% ≤ substrate protein remaining % ≤ 80%)	B (80%< substrate protein remaining %≤ 100%)	B (80%< substrate protein remaining %≤ 100%)	60 to 80%	80 to 100%						
